Test results as given in patent publication US20260365646A1, “AKT1 MODULATORS” (Alterome Therapeutics, Inc., priority 2022, published 2026).

Biological target: T1, full length AKT E17K (Homo sapiens, UniProt P31749, E17K)
T1 construct: host or cells: HEK-293 (ATCC CRL-1573)
Assay: NanoBRET Target Engagement (TE) Intracellular Kinase Assay
Format: cell-based
Details: not given
Outline: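 Live-cell BRET assay: cells expressing NanoLuc-fused full-length AKT E17K incubated 2 h with tracer at target-optimized concentration plus compound. BRET read at 450 nm donor/600 nm acceptor with extracellular NanoLuc inhibitor. EC50 from sigmoidal variable-slope fit of tracer displacement.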

T1 sequence (P31749 whole entry E17K): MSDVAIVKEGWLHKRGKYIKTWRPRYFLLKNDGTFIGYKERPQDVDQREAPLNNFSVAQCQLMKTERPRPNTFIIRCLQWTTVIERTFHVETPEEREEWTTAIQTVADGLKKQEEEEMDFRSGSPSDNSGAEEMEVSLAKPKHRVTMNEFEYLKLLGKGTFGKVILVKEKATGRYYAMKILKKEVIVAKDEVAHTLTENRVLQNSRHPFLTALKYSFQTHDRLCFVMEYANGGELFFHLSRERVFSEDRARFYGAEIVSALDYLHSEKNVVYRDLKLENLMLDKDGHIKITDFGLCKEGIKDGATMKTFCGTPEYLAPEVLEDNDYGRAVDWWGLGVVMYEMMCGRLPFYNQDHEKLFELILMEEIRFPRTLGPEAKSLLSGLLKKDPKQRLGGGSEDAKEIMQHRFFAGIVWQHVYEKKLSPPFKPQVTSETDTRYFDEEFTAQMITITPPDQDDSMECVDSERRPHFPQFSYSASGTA

| EC50 [nM] | Structure (SMILES) |
| --- | --- |
| 60 to 600 | COc1c(N2CCN(Cc3ccc(-n4c(-c5cccnc5N)nc5ccc(-c6ccccc6)nc54)cc3)C[C@H]2CO)c(=O)c1=O [Example 80, (S)-3-(4-(4-(2-(2-aminopyridin-3-yl)-5-phenyl-3H-imidazo[4,5-b]pyridin-3-yl)benzyl)-2-(hydroxymethyl)piperazin-1-yl)-4-methoxycyclobut-3-ene-1,2-dione] |
| > 600 | Nc1ncccc1-c1nc2ccc(-c3ccccc3)nc2n1-c1ccc(CN2CCN(c3c(OC4CCCC4)c(=O)c3=O)CC2)cc1 [Example 26, 3-(4-(4-(2-(2-aminopyridin-3-yl)-5-phenyl-3H-imidazo[4,5-b]pyridin-3-yl)benzyl)piperazin-1-yl)-4-(cyclopentyloxy)cyclobut-3-ene-1,2-dione] |
| > 600 | CN(C)c1c(NC2CCN(Cc3ccc(-n4c(-c5cccnc5N)nc5ccc(-c6ccccc6)nc54)cc3)CC2)c(=O)c1=O [Example 19, 3-((1-(4-(2-(2-Aminopyridin-3-yl)-5-phenyl-3H-imidazo[4,5-b]pyridin-3-yl)benzyl)piperidin-4-yl)amino)-4-(dimethylamino)cyclobut-3-ene-1,2-dione] |
| 15 to 60 | COc1c(N2CCC(NCc3ccc(-n4c(-c5cccnc5N)nc5ccc(-c6ccccc6)nc54)cc3)CC2)c(=O)c1=O [Example 77, 3-(4-((4-(2-(2-aminopyridin-3-yl)-5-phenyl-3H-imidazo[4,5-b]pyridin-3-yl)benzyl)amino)piperidin-1-yl)-4-methoxycyclobut-3-ene-1,2-dione] |
| 60 to 600 | Nc1ncccc1-c1nc2ccc(-c3ccccc3)nc2n1-c1ccc(CN2CCC(N3CCCOc4c3c(=O)c4=O)C2)cc1 (stereo not shown) [Example 82, 6-(1-(4-(2-(2-aminopyridin-3-yl)-5-phenyl-3H-imidazo[4,5-b]pyridin-3-yl)benzyl)pyrrolidin-3-yl)-2-oxa-6-azabicyclo[5.2.0]non-1(7)-ene-8,9-dione] |
| 15 to 60 | CSc1c(N(C2CC2)C2CCN(Cc3ccc(-n4c(-c5cccnc5N)nc5ccc(-c6ccccc6)nc54)cc3)CC2)c(=O)c1=O [Example 95, 3-((1-(4-(2-(2-aminopyridin-3-yl)-5-phenyl-3H-imidazo[4,5-b]pyridin-3-yl)benzy1)piperidin-4-yl)(cyclopropyl)amino)-4-(methylthio)cyclobut-3-ene-1,2-dione] |

Same assay, conditions: read-out: NanoBRET AKT1E17K EC50; HEK-293 cells transfected with NanoLuc-AKT E17K; competitive displacement of NanoBRET tracer; 2 hr equilibration; 10-point 3-fold dilution

| EC50 [nM] | Structure (SMILES) |
| --- | --- |
| < 15 | COc1c(NC2CCN(Cc3ccc(-n4c(-c5cccnc5N)nc5cc(-c6ccccc6)cnc54)cc3)CC2)c(=O)c1=O [Example 10, 3-((1-(4-(2-(2-Aminopyridin-3-yl)-6-phenyl-3H-imidazo[4,5-b]pyridin-3-yl)benzyl)piperidin-4-yl)amino)-4-methoxycyclobut-3-ene-1,2-dione] |
| < 15 | COc1c(NC2CCN(Cc3ccc(-n4c(-c5cccnc5N)nc5ccc(-c6ccccc6)nc54)cc3)CC2)c(=O)c1=O [Example 17, 3-((1-(4-(2-(2-Aminopyridin-3-yl)-5-phenyl-3H-imidazo[4,5-b]pyridin-3-yl)benzyl)piperidin-4-yl)amino)-4-methoxycyclobut-3-ene-1,2-dione] |
| < 15 | COc1c(N2CC3(CCN(Cc4ccc(-n5c(-c6cccnc6N)nc6ccc(-c7ccccc7)nc65)cc4)CC3)C2)c(=O)c1=O [Example 53, 3-(7-(4-(2-(2-Aminopyridin-3-yl)-5-phenyl-3H-imidazo[4,5-b]pyridin-3-yl)benzyl)-2,7-diazaspiro[3.5]nonan-2-yl)-4-methoxycyclobut-3-ene-1,2-dione] |
| < 15 | COc1c(N2C[C@@H]3C[C@H]2CN3Cc2ccc(-n3c(-c4cccnc4N)nc4ccc(-c5ccccc5)nc43)cc2)c(=O)c1=O [Example 75, 3-((1S,4S)-5-(4-(2-(2-aminopyridin-3-yl)-5-phenyl-3H-imidazo[4,5-b]pyridin-3-yl)benzyl)-2,5-diazabicyclo[2.2.1]heptan-2-y1)-4-methoxycyclobut-3-ene-1,2-dione] |
